Source: patent publication US20250057994A1, “LABELED COMPOUNDS AND CALCIUM SENSING RECEPTOR LIGANDS FOR IMAGING AND USES THEREOF” (The University of North Carolina at Chapel Hill, priority 2021, published 2025)

Tests used:
[1] = In vitro stability of 18F-cinacalcet (incubation, HPLC purity); type: physicochemical
Experimental: (§1) In a non-human primate imaging experiment, the blood samples were drawn from vein at 1 and 3 h post injection.
(§2) Stability of [^18F]F-ZW-cinacalcet. The photoredox labeling method allows access to a new category of PET agent bearing a SP^2-F bond. [^18F]F-ZW-cinacalcet has improved stability compared to the CF3 labeling method. The formulated [^18F]F-ZW-cinacalcet was first incubated in PBS (Phosphate buffered saline containing 8% EtOH), and aliquots were taken for analysis at different time points. […] Subsequently, the in vivo stability of [^18F]F-ZW-cinacalcet was tested in a non-human primate. After injection, a blood sample was collected at 1 and 3 h time points. […] Because the imaging was finished within the first hour, the metabolites were not determined in this study

[2] = In vivo stability in non-human primate blood samples; settings: for In vivo stability in blood: non-human primate
Experimental: as §1, §2

[3] = Octanol water partition coefficient (Log P); type: physicochemical; settings: 1-octanol/water; 1-octanol and water system, average value
Excerpt: Determination of Octanol water Partition Coefficient (Log P).

[4] = target: T1, CSR (Rattus norvegicus, UniProt P48442); assay: Small animal PET/CT imaging of parathyroid in rats (static and dynamic); type: in vivo
T1 construct: Normal rats were used as an animal model for initial CSR agent imaging; from tissue; host or cells: rat parathyroid (also lung and other tissues), in vivo and excised sections
T1 sequence (P48442 20-1079): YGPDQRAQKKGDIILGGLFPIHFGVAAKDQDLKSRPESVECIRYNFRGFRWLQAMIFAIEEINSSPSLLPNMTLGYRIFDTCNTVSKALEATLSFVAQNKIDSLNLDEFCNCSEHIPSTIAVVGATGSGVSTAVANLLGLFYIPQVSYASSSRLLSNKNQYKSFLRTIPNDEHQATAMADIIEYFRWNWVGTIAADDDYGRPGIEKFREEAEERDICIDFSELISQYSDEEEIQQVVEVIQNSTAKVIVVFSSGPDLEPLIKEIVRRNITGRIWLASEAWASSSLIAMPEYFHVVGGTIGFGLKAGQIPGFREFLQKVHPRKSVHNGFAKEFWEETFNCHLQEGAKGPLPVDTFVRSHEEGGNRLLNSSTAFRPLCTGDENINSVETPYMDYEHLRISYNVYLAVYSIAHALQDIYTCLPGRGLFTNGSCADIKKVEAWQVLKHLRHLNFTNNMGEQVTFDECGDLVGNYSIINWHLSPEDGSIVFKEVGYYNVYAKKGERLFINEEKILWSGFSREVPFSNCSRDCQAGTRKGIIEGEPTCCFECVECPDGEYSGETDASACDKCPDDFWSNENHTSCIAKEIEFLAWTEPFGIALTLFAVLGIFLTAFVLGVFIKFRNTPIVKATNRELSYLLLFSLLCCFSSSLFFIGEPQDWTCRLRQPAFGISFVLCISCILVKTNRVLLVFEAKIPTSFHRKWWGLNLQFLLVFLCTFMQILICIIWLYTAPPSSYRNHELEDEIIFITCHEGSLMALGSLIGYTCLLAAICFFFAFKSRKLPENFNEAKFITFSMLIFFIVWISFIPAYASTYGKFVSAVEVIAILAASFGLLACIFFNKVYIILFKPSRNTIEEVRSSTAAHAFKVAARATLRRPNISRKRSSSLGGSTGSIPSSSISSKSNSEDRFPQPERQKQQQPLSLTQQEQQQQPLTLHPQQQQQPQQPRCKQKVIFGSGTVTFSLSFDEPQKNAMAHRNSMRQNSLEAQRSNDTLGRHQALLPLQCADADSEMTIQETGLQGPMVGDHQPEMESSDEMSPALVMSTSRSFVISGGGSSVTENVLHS
Experimental: Normal rats were used as an animal model for initial CSR agent imaging. Surgical dissection of the mouse parathyroid gland is too technically difficult, in contrast to the rat which has approximately 10 times the body mass of a mouse. Analyses were performed by individuals with extensive experience on parathyroid identification for pathology. autoradiography, and microscope study. In brief, animals were anesthetized with isoflurane. For PET probes, dynamic PET imaging was performed after the administration of 1 to 2 mCi of tracer, and animals were imaged with 2 h dynamic scan. A CT scan was also obtained for anatomic registration and attenuation correction. Images were reconstructed to create representative dynamic images for the study (10 min epochs). These images were qualitatively graded to assess the visibility of the parathyroid gland against background tissues. PET kinetic modeling was also performed to evaluate the relative kinetics of uptake of the parathyroid gland compared to the thyroid and other tissues.
^18F-cinacalcet could detect parathyroid gland in rats by targeting CSR. Parathyroid gland are very small (3-5 mm in human) and generally below the detection limit of most imaging methods. The novel CSR PET agent ^18F-cinacalcet was injected in rat and small animal PET imaging was performed. […] In order to confirm the observed signal did come from the very small parathyroid gland instead of thyroid or other tissue, the rats were sacrificed and the localization of radioactivity in the gland tissue was evaluated by autoradiography coupled with pathology staining of neighboring slides.
Small animal-PET CT imaging of parathyroid in rodents. Because the parathyroid is rather small, rats were used instead of mice to evaluate the agent. Static PET scans were acquired in rats at 0.5 h, 1 h and 2 h post injection of [^18F]F-ZW-cinacalcet. Representative coronal PET images are shown in FIG. 15 panel A. Parathyroid could be visualized on the image at the early time point of 0.5 h with a radiotracer uptake of 0.28±0.16% ID/g and parathyroid/muscle ratio of 4.9±0.93.
Dynamic PET images of [^18F]F-ZW-cinacalcet in rats were acquired for 60 minutes. [^18F]F-ZW-cinacalcet accumulated into parathyroid at the earliest timepoints and peaked at about 7 min post injection (0.33±0.05% ID/g), followed by a gradual decline to 0.17±0.01% ID/g at 60 min post injection.
Uptake peaked at 2 min post injection (lung: 1.00±0.19% ID/g; heart: 0.95±0.14% ID/g), with similar kinetics until 10 min post injection. Then, the heart uptake dropped rapidly to 0.15±0.27% ID/g at 60 min post injection, whereas the lung uptake remained at a high level at 60 min post injection of 0.41±0.07% ID/g. In addition, the radiotracer was also observed entering into the brain with a stable uptake level of ˜0.2% ID/g.

[5] = target: T1, CSR; assay: Autoradiography with matched CSR IHC staining of excised rat tissue; type: in vivo; settings: rats
Experimental: After the imaging of each animal, the parathyroid glands were carefully dissected out and the uptake in parathyroid gland was measured, then subsequently evaluated pathologically to confirm the histology. Autoradiography was performed to study its distribution in gland area. Optical imaging guidance during the surgical procedures was also performed using the developed CSR PET-fluorescence probes. During excision, the surgeon also graded the visibility of the lesions with and without the use of fluorescence. Other critical organs, including the thyroid gland, nearby tissues, and major organs were also dissected out to evaluate the relative uptake within these organs. The localization of radioactivity in the gland tissue was also confirmed by autoradiography coupled with pathology staining of neighboring slides.
^18F-cinacalcet could detect parathyroid gland in rats by targeting CSR. […] In order to confirm the observed signal did come from the very small parathyroid gland instead of thyroid or other tissue, the rats were sacrificed and the localization of radioactivity in the gland tissue was evaluated by autoradiography coupled with pathology staining of neighboring slides.
Autoradiography and pathology. […] Quantitative analysis of autoradiography and IHC staining was expressed as a mean integrated density (Mean IntDen). […]

[6] = dynamic PET, 2 min post injection
[7] = dynamic PET, 60 min post injection
[8] = static PET, 0.5 h post injection

In vitro stability, purity ([1]; 6 h time point): > 90% | Stability in PBS, purity ([1]; PBS containing 8% EtOH, 4 h post incubation): > 95% | In vivo stability in blood ([2]; 1 h post injection): majority of the agent remained untouched | In vivo stability in blood ([2]; 1 h post injection, listed as 18F-cinacalcet): rather stable | In vivo stability in blood ([2]; 3 h post injection): hydrophilic metabolite was observed | In vivo stability in blood ([2]; 3 h post injection, listed as 18F-cinacalcet): significant metabolites are observed | logP [3]: 1.95 ± 0.02 | Brain uptake, stable level ([4]; dynamic PET): ~0.2 % ID/g | Heart uptake at peak [4, 6]: 0.95±0.14 % ID/g | Lung uptake at peak [4, 6]: 1.00±0.19 % ID/g | Muscle uptake ([4]; dynamic PET, 20 min post injection): < 0.06 % ID/g | Heart uptake [4, 7]: 0.15±0.27 % ID/g | Lung uptake [4, 7]: 0.41±0.07 % ID/g | Parathyroid uptake [4, 7]: 0.17±0.01 % ID/g | Parathyroid uptake at peak ([4]; dynamic PET, about 7 min post injection): 0.33±0.05 % ID/g | Time of peak lung and heart uptake ([4]; dynamic PET, post injection): 2 min | Time of peak parathyroid uptake ([4]; dynamic PET, post injection): about 7 min | PET signal in neck area ([4]; small animal PET): clearly demonstrated two hot spots | Parathyroid radiotracer uptake [4, 8]: 0.28±0.16 % ID/g | Parathyroid/muscle ratio [4, 8]: 4.9±0.93 | Parathyroid radioactivity ([4]; static PET, 2 h time point): reverted to the background level | Parathyroid/thyroid ratio in autoradiography (Mean IntDen) ([5]; excised tissue sections): 6.60±1.28 | Localization of radioactivity by autoradiography and pathology staining ([5]; neighboring slides): correlated well with parathyroid gland
SMILES: C[C@@H](NCCCc1cccc(C(F)(F)F)c1)c1ccc([18F])c2ccccc12 [[^18F]F-ZW-cinacalcet]
Blood metabolic stability ([2]; Rhesus Macaque, overall judgement): acceptable stability for imaging applications
